Source: patent US10131652B2, “Pyrimidinyloxy benzene derivatives as herbicides” (E. I. DU PONT DE NEMOURS AND COMPANY, priority 2014, dated 2018)

Assays:
Assay type in all cases: in vivo
[1] = tested on: small-flower umbrella sedge (Cyperus difformis); experiment: Test C flooded paddy test plant response; details: Flood, 250 g ai/ha; scale of 0 to 100 where 0 is no effect and 100 is complete control; 13 to 15 days
Summary of the method: (§1)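 Scale 0 (no effect) to 100 (complete control), assigned visually versus controls after 13–15 d greenhouse. Application: directly to paddy water, 3 cm flood depth kept constant, 2-leaf stage.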

[2] = tested on: rice (Oryza sativa); experiment: Test C flooded paddy test plant response; details: Flood, 250 g ai/ha; scale of 0 to 100 where 0 is no effect and 100 is complete control; 13 to 15 days
Summary of the method: as §1

[3] = tested on: ducksalad (Heteranthera limosa); experiment: Test C flooded paddy test plant response; details: Flood, 250 g ai/ha; scale of 0 to 100 where 0 is no effect and 100 is complete control; 13 to 15 days
Summary of the method: as §1

[4] = tested on: barnyardgrass (Echinochloa crus-galli); experiment: Test C flooded paddy test plant response; details: Flood, 250 g ai/ha; scale of 0 to 100 where 0 is no effect and 100 is complete control; 13 to 15 days
Summary of the method: as §1

[5] = tested on: ragweed (common ragweed, Ambrosia elatior); experiment: Test B pre-/postemergence plant response
Summary of the method: (§2)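 Greenhouse pots, loam/sand soil; compound formulated with surfactant in non-phytotoxic solvent. Preemergence soil spray and postemergence spray at 1–2 leaf stage run simultaneously. Visual injury, 0–100, about 10 days post-treatment.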

[6] = tested on: kochia (Kochia scoparia); experiment: Test B pre-/postemergence plant response
Summary of the method: as §2

[7] = tested on: wheat (Triticum aestivum); experiment: Test B pre-/postemergence plant response
Summary of the method: as §2

[8] = tested on: Italian ryegrass (Lolium multiflorum); experiment: Test B pre-/postemergence plant response
Summary of the method: as §2

[9] = tested on: pigweed (Amaranthus retroflexus); experiment: Test B pre-/postemergence plant response
Summary of the method: as §2

[10] = tested on: giant foxtail (Setaria faberii); experiment: Test B pre-/postemergence plant response
Summary of the method: as §2

[11] = tested on: corn (Zea mays); experiment: Test B pre-/postemergence plant response
Summary of the method: as §2

[12] = tested on: barnyardgrass (Echinochloa crus-galli); experiment: Test B pre-/postemergence plant response
Summary of the method: as §2

[13] = tested on: blackgrass (Alopecurus myosuroides); experiment: Test B postemergence plant response
Summary of the method: (§3)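 Injury was assessed visually about 10 days after treatment, scored from 0 (no effect) to 100 (complete control) by comparison with untreated controls. Test chemicals had been applied postemergence to potted plants at the one- to two-leaf stage, grown in loam soil and sand in a greenhouse.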

[14] = tested on: galium (catchweed bedstraw, Galium aparine); experiment: Test B postemergence plant response
Summary of the method: as §3

[15] = 31 g ai/ha, Preemergence, 0 to 100 scale where 0 is no effect and 100 is complete control
[16] = 125 g ai/ha, postemergence, 0 to 100 scale, 0 no effect, 100 complete control
[17] = Preemergence, 125 g ai/ha, 0 to 100 scale (0 no effect, 100 complete control)
[18] = 31 g ai/ha, Postemergence, 0 to 100 scale, 0 no effect, 100 complete control
[19] = Postemergence, 31 g ai/ha, 0 to 100 scale (0 no effect, 100 complete control)
[20] = Postemergence, 500 g ai/ha, 0 to 100 scale (0 no effect, 100 complete control)
[21] = Preemergence, 500 g ai/ha, 0 to 100 scale where 0 is no effect and 100 is complete control

Row | Structure (SMILES) | Sedge, Umbrella plant response rating [1] | Rice plant response rating [2] | Ducksalad plant response rating [3] | Barnyardgrass plant response rating [4] | Plant response rating, Ragweed [5, 16] | Ragweed plant response rating [5, 17] | Plant response rating, Kochia [6, 16] | Kochia plant response rating [6, 17] | Plant response rating, Wheat [7, 16] | Plant response rating, Ryegrass, Italian [8, 16] | Ryegrass, Italian plant response rating [8, 17] | Plant response rating, Pigweed [9, 16] | Pigweed plant response rating [9, 17] | Plant response rating, Foxtail, Giant [10, 16] | Foxtail, Giant plant response rating [10, 17] | Plant response rating, Corn [11, 16] | Plant response rating, Barnyardgrass [12, 16] | Barnyardgrass plant response rating [12, 17] | Plant response rating, Blackgrass [13, 16] | Plant response rating, Galium [14, 16] | also measured
1 | FC(F)(F)C(F)(F)c1cc(-c2ccccc2Oc2ncc(Cl)cn2)no1 [Compound 142] | 0 | 0 | 0 | 0 | 0 | 0 | 20 | 0 | 0 | 0 | 0 | 20 | 0 | 0 | 20 | 20 | 0 | 0 | 0 | 10 | Plant response rating, Ragweed [5, 15]: 0; Plant response rating, Kochia [6, 15]: 0; Plant response rating, Ryegrass, Italian [8, 15]: 0; Plant response rating, Pigweed [9, 15]: 0; Plant response rating, Foxtail, Giant [10, 18]: 0; Plant response rating, Foxtail, Giant [10, 15]: 0; Plant response rating, Corn [11, 18]: 0; Plant response rating, Barnyardgrass [12, 18]: 0; Plant response rating, Barnyardgrass [12, 15]: 0; Plant response rating, Blackgrass [13, 18]: 0
2 | Cn1nc(-c2c(C#N)cccc2Oc2ncc(Cl)cn2)cc1C(F)(F)F [Compound 146] | 0 | 0 | 0 | 0 | 0 | 0 | 60 | 0 | 0 | 0 | 0 | 60 | 70 | 20 | 20 | 0 | 20 | 30 | 30 | 50 | Plant response rating, Ragweed [5, 15]: 0; Plant response rating, Ragweed [5, 19]: 0; Plant response rating, Kochia [6, 15]: 0; Plant response rating, Kochia [6, 19]: 50; Plant response rating, Wheat [7, 19]: 0; Plant response rating, Ryegrass, Italian [8, 15]: 0; Plant response rating, Ryegrass, Italian [8, 19]: 0; Plant response rating, Pigweed [9, 15]: 0; Plant response rating, Pigweed [9, 19]: 30; Plant response rating, Foxtail, Giant [10, 15]: 0; Plant response rating, Foxtail, Giant [10, 19]: 0; Plant response rating, Corn [11, 19]: 0; Plant response rating, Barnyardgrass [12, 15]: 0; Plant response rating, Barnyardgrass [12, 19]: 0; Plant response rating, Blackgrass [13, 19]: 0; Plant response rating, Galium [14, 19]: 30
3 | Cn1nc(-c2c(Br)cccc2Oc2ncc(Cl)cn2)cc1C(F)(F)F [Compound 147] | 0 | 0 | 0 | 0 | 0 | 0 | 0 | 0 | 0 | 0 | 0 | 0 | 0 | 0 | 0 | 0 | 0 | 0 | 0 | 0 | Plant response rating, Ragweed [5, 15]: 0; Plant response rating, Ragweed [5, 19]: 0; Plant response rating, Kochia [6, 15]: 0; Plant response rating, Kochia [6, 19]: 0; Plant response rating, Wheat [7, 19]: 0; Plant response rating, Ryegrass, Italian [8, 15]: 0; Plant response rating, Ryegrass, Italian [8, 19]: 0; Plant response rating, Pigweed [9, 15]: 0; Plant response rating, Pigweed [9, 19]: 0; Plant response rating, Foxtail, Giant [10, 15]: 0; Plant response rating, Foxtail, Giant [10, 19]: 0; Plant response rating, Corn [11, 19]: 0; Plant response rating, Barnyardgrass [12, 15]: 0; Plant response rating, Barnyardgrass [12, 19]: 0; Plant response rating, Blackgrass [13, 19]: 0; Plant response rating, Galium [14, 19]: 0
4 | CC(=O)c1cc(-c2ccccc2Oc2ncc(Br)cn2)no1 [Compound 150] | 0 | 0 | 0 | 0 | 0 | 0 | 0 | 0 | 0 | 0 | 0 | 20 | 20 | 10 | 20 | 10 | 20 | 20 | 10 | 10 | Plant response rating, Ragweed [5, 15]: 0; Plant response rating, Ragweed [5, 19]: 0; Plant response rating, Kochia [6, 15]: 0; Plant response rating, Kochia [6, 19]: 0; Plant response rating, Wheat [7, 19]: 0; Plant response rating, Ryegrass, Italian [8, 15]: 0; Plant response rating, Ryegrass, Italian [8, 19]: 0; Plant response rating, Pigweed [9, 15]: 0; Plant response rating, Pigweed [9, 19]: 10; Plant response rating, Foxtail, Giant [10, 15]: 0; Plant response rating, Foxtail, Giant [10, 19]: 0; Plant response rating, Corn [11, 19]: 0; Plant response rating, Barnyardgrass [12, 15]: 0; Plant response rating, Barnyardgrass [12, 19]: 0; Plant response rating, Blackgrass [13, 19]: 0; Plant response rating, Galium [14, 19]: 0
5 | Cn1ccnc1-c1ccccc1Oc1ncc(Cl)cn1 [Compound 151] | 0 | 0 | 0 | 0 | 0 | 0 | 0 | 0 | 0 | 0 | 0 | 0 | 0 | 0 | 0 | 0 | 0 | 0 | 0 | 0 | Plant response rating, Ragweed [5, 20]: 0; Plant response rating, Ragweed [5, 21]: 0; Plant response rating, Kochia [6, 20]: 0; Plant response rating, Kochia [6, 21]: 0; Plant response rating, Wheat [7, 20]: 0; Plant response rating, Ryegrass, Italian [8, 20]: 0; Plant response rating, Ryegrass, Italian [8, 21]: 0; Plant response rating, Pigweed [9, 20]: 0; Plant response rating, Pigweed [9, 21]: 0; Plant response rating, Foxtail, Giant [10, 20]: 0; Plant response rating, Foxtail, Giant [10, 21]: 0; Plant response rating, Corn [11, 20]: 0; Plant response rating, Barnyardgrass [12, 20]: 0; Plant response rating, Barnyardgrass [12, 21]: 0; Plant response rating, Blackgrass [13, 20]: 0; Plant response rating, Galium [14, 20]: 0
